{"source": "paper PMC11018795", "about": "“The regulatory relationship between NAMPT and PD-L1 in cancer and identification of a dual-targeting inhibitor” (EMBO Molecular Medicine, 2024)", "key": {"[1]": {"tested_on": "LLC OE NAMPT/PD-L1 tumors", "test": "LLC OE NAMPT/PD-L1 tumor-bearing C57BL/6 mice", "assay_type": "in vivo, mouse", "details": "20 mg/kg i.p.; 14 days; Fig 7B"}, "[2]": {"tested_on": "IFN-γ and TNF-α secretion, LLC cells co-cultured with T cells", "test": "ELISA of IFN-γ and TNF-α, LLC cells under co-culture condition", "assay_type": "cell-based, mouse", "set-up": "unit not given here", "details": "in vitro"}, "[3]": {"tested_on": "IFN-γ and TNF-α in LLC OE NAMPT/PD-L1 tumor tissues", "test": "ELISA of IFN-γ and TNF-α in tumor tissues of LLC OE NAMPT/PD-L1 mouse model", "set-up": "unit not given here", "details": "in vivo, tumor tissue, CQ-85 20 mg/kg"}, "[4]": {"tested_on": "glycolytic genes in LLC cells", "test": "RT-PCR of glycolytic genes in LLC cells with or without T cells", "assay_type": "cell-based, mouse", "set-up": "key to HK2 mRNA level / Glut1 mRNA level / Aldoa mRNA level / Eno1 mRNA level: relative mRNA level normalized to GAPDH (endogenous control)", "experimental": "(§1) Total RNA was isolated using TRIzol reagent (Invitrogen, 15596026) according to the manufacturer's protocol. First-strand cDNA synthesis was performed using a RevertAid First Strand cDNA Synthesis Kit (Thermo Fisher, […]). Quantitative real-time PCR analysis was performed by mixing 10 μl SYBR, 0.4 μM forward primer, 0.4 μM reverse primer, 1 μl cDNA, and 8.2 μl distilled water per sample with Top Green qPCR SuperMix (Transgene, AQ601-04) by the manufacturer's protocols. GAPDH was used as an endogenous control. All qRT-PCRs were set up in triplicate using three biological replicates for each sample. Primer information is shown in Appendix Table S1."}, "[5]": {"tested_on": "pyruvate content of LLC cells", "test": "Pyruvate (PA) content in LLC cells with or without T cells", "assay_type": "cell-based, mouse", "set-up": "unit not given beside the values", "from_the_text": "Supplement 44321_2024_51_MOESM3_ESM.zip/Fig-2-G.xlsx, sheet \"Sheet1\" | column: \"-T cells; \"+T cells"}, "[6]": {"tested_on": "NAD+ content of LLC cells", "test": "NAD+ content in LLC cells with or without T cells", "assay_type": "cell-based, mouse", "set-up": "unit not given here", "experimental": "(§2) NAD^+ assays were performed to quantify the total NAD^+ content. NAD^+ assay was performed using the NAD/NADH Assay Kit (ab65348; Abcam) according to the manufacturer’s recommended protocol."}, "[7]": {"tested_on": "glycolytic genes in A549 cells", "test": "RT-PCR of glycolytic genes, A549 cells co-cultured with PBMC", "assay_type": "cell-based, human", "set-up": "key to Aldoa mRNA level / Eno1 mRNA level / HK2 mRNA level / Glut1 mRNA level: relative mRNA level normalized to GAPDH (endogenous control)", "experimental": "as §1"}, "[8]": {"tested_on": "glycolytic genes in A549 KO HIF-1α cells", "test": "RT-PCR of glycolytic genes, A549 KO HIF-1α cells co-cultured with PBMC", "assay_type": "cell-based, human", "details": "A549 KO HIF-1α co-cultured with PBMC", "experimental": "as §1"}, "[9]": {"tested_on": "NAD+ content of A549 cells", "test": "NAD+ content, A549 cells with or without PBMC", "assay_type": "cell-based, human", "set-up": "unit not given here", "experimental": "as §2"}, "[10]": {"tested_on": "NAD+ content of A549 KO HIF-1α cells", "test": "NAD+ content, A549 KO HIF-1α cells with or without PBMC", "assay_type": "cell-based, human", "set-up": "unit not given here", "experimental": "as §2"}, "[11]": {"tested_on": "pyruvate content of A549 cells", "test": "Pyruvate (PA) content, A549 cells with or without PBMC", "assay_type": "cell-based, human", "set-up": "unit not given beside the values", "from_the_text": "Supplement 44321_2024_51_MOESM3_ESM.zip/Fig-2-K-PA.xlsx, sheet \"Sheet1\" | column: A549"}, "[12]": {"tested_on": "pyruvate content of A549 KO HIF-1α cells", "test": "Pyruvate (PA) content, A549 KO HIF-1α cells with or without PBMC", "assay_type": "cell-based, human", "set-up": "unit not given beside the values", "from_the_text": "Supplement 44321_2024_51_MOESM3_ESM.zip/Fig-2-K-PA.xlsx, sheet \"Sheet1\" | column: A549 KO HIF-1α"}, "[13]": {"tested_on": "NAMPT expression in LLC OE NAMPT/PD-L1 tumors", "test": "NAMPT protein expression in LLC constructed xenograft model", "assay_type": "in vivo, mouse", "details": "CQ-85 20 mg/kg vs control group"}}, "note": "Values joined by “and” are separate entries in the source; they are usually repeats but may differ in a detail not shown here. Identical values can stand only once.", "data": [{"smiles": "O=C(c1ncc(CNC2CCOCC2)s1)N1CCc2c(-c3ccc4c(c3)OCCO4)cccc21", "note": "[CQ-85]", "values": [{"measurement": "TIR / tumor growth inhibition (TGI) rate at endpoint", "setting": "[1]", "value": 45.36, "unit": "%"}, {"measurement": "IFN-γ (ELISA)", "setting": "[2]", "value": "156.023 and 118.367 and 126.961"}, {"measurement": "TNF-α (ELISA)", "setting": "[2]", "value": "198.796 and 198.903 and 183.742"}, {"measurement": "IFN-γ (ELISA)", "setting": "[3]", "value": "32.0391 and 39.4609 and 37.7422 and 48.3828"}, {"measurement": "TNF-α (ELISA)", "setting": "[3]", "value": "49.9785 and 53.7419 and 61.1613 and 63.957"}, {"measurement": "Aldoa mRNA level", "setting": "[4]; +T Cells", "value": "3.122 and 3.144 and 2.933"}, {"measurement": "Eno1 mRNA level", "setting": "[4]; +T Cells", "value": "1.63 and 2.181 and 1.51"}, {"measurement": "HK2 mRNA level", "setting": "[4]; +T Cells", "value": "1.976 and 1.225 and 1.397"}, {"measurement": "Pfk1 mRNA level", "setting": "[4]; +T Cells", "value": "4.524 and 5.686 and 6.18"}, {"measurement": "Aldoa mRNA level", "setting": "[4]; -T Cells", "value": "0.1409 and 0.1113 and 0.07549"}, {"measurement": "Eno1 mRNA level", "setting": "[4]; -T Cells", "value": "1.412 and 1.0924 and 0.8165"}, {"measurement": "Glut1 mRNA level", "setting": "[4]; -T Cells", "value": "0.4601 and 0.3164 and 0.3635"}, {"measurement": "HK2 mRNA level", "setting": "[4]; -T Cells", "value": "1.925 and 1.641 and 1.032"}, {"measurement": "content of pyruvate (PA)", "setting": "[5]; +T Cells", "value": "0.4897 and 0.4757 and 0.4584"}, {"measurement": "content of pyruvate (PA)", "setting": "[5]; -T Cells", "value": "0.334 and 0.378 and 0.3588"}, {"measurement": "content of NAD+", "setting": "[6]; taken as +T cells by analogy with Fig 2G", "value": "6.631 and 6.489 and 6.614"}, {"measurement": "content of NAD+", "setting": "[6]; taken as -T cells by analogy with Fig 2G", "value": "10.4157 and 11.1416 and 12.0617"}, {"measurement": "Aldoa mRNA level", "setting": "[7]", "value": "0.8847 and 0.8971 and 0.9885"}, {"measurement": "Eno1 mRNA level", "setting": "[7]", "value": "1.112 and 1.398 and 1.35"}, {"measurement": "Glut1 mRNA level", "setting": "[7]", "value": "2.253 and 2.993 and 2.146"}, {"measurement": "HK2 mRNA level", "setting": "[7]", "value": "5.011 and 5.445 and 5.877"}, {"measurement": "Pfk1 mRNA level", "setting": "[7]", "value": "1.666 and 1.544 and 1.005"}, {"measurement": "Aldoa mRNA level", "setting": "[8]", "value": "0.8971 and 0.8909 and 1.1434"}, {"measurement": "Eno1 mRNA level", "setting": "[8]", "value": "0.7363 and 0.9515 and 0.8284"}, {"measurement": "Pfk1 mRNA level", "setting": "[8]", "value": "0.9428 and 1.091 and 0.7397"}, {"measurement": "content of NAD+", "setting": "[9]; +PBMC", "value": "9.197 and 8.685 and 8.9355"}, {"measurement": "content of NAD+", "setting": "[9]; -PBMC", "value": "11.8739 and 12.9843 and 12.9544"}, {"measurement": "content of NAD+", "setting": "[10]; +PBMC", "value": "10.9402 and 9.994 and 10.0633"}, {"measurement": "content of NAD+", "setting": "[10]; -PBMC", "value": "11.853 and 11.7415 and 11.8655"}, {"measurement": "content of pyruvate (PA)", "setting": "[11]; +PBMC", "value": "0.2271 and 0.2241 and 0.2316"}, {"measurement": "content of pyruvate (PA)", "setting": "[11]; -PBMC", "value": "0.1159 and 0.1109 and 0.1297"}, {"measurement": "content of pyruvate (PA)", "setting": "[12]; +PBMC", "value": "0.1029 and 0.09765 and 0.1064"}, {"measurement": "content of pyruvate (PA)", "setting": "[12]; -PBMC", "value": "0.08688 and 0.08738 and 0.09664"}, {"measurement": "effect on NAMPT protein expression", "setting": "[13]", "value": "upregulate the protein expression of NAMPT"}]}]}
